Values of other authors as cited in patent publication US5739112A, “Inhibitors of factor Xa” (Corvas International, Inc., priority 1995, dated 1998).

What was measured:
Details in all cases: Turner et al., p. 4932; cited from earlier work
Human factor XIa = test system: Human factor XIa
Human factor Xa = biological target: T1, Human factor Xa (Homo sapiens, UniProt P00742)
T1 construct: Human factor X contains a light-chain subunit containing 139 amino acid residues; purchased Enzyme Research Laboratories

human thrombin = human thrombin (Homo sapiens, UniProt P00734)

T1 sequence (P00742 235-488 limits assumed): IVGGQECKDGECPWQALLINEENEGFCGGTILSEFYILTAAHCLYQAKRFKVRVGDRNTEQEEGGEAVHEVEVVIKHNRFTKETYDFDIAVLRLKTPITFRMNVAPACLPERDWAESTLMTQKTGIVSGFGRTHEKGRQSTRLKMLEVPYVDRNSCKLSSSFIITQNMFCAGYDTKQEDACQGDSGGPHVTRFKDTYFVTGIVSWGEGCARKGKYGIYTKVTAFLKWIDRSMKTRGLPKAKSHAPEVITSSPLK
T1 sequence (P00742 41-179 partner limits assumed): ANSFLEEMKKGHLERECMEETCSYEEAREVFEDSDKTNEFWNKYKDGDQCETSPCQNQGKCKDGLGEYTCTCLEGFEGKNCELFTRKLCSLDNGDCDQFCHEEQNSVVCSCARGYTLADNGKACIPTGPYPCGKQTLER

CC(=Cc1ccccc1)C(=O)Oc1ccc(C(=N)N)cc1 [p-Amidinophenyl α-methylcinnamate]
second-order rate constant of inactivation, human factor XIa (Human factor XIa): 2670 M⁻¹ s⁻¹
second-order rate constant of inactivation, human factor Xa (Human factor Xa): 1650 M⁻¹ s⁻¹
second-order rate constant of inactivation, human thrombin (human thrombin): 2670 M⁻¹ s⁻¹
